pEC50: −log10 of the molar value.
What was measured:
[1] = biological target: T1, ovine COX-1 (Ovis aries, UniProt P05979); assay: Purified COX-1 enzyme inhibition assay; format: biochemical
T1 sequence (P05979 25-600): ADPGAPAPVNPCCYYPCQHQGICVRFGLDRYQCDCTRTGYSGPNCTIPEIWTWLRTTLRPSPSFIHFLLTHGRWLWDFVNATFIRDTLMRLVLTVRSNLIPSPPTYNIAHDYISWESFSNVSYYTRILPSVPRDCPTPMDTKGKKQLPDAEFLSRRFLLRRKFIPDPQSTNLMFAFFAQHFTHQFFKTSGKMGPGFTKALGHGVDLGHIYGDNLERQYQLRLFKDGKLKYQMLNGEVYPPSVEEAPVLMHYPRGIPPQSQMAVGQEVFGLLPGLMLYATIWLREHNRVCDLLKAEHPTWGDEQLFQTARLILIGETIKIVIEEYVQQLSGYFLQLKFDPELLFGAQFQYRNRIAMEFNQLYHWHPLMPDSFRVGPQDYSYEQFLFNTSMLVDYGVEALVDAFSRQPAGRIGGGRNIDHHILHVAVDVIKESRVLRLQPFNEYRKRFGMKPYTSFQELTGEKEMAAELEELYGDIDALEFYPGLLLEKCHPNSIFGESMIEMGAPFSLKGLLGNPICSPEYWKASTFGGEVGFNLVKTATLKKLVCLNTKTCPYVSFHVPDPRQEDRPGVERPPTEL

[2] = biological target: T2, mouse COX-2 (Mus musculus, UniProt Q05769); assay: Purified COX-2 enzyme inhibition assay; format: biochemical
T2 sequence (Q05769 18-604): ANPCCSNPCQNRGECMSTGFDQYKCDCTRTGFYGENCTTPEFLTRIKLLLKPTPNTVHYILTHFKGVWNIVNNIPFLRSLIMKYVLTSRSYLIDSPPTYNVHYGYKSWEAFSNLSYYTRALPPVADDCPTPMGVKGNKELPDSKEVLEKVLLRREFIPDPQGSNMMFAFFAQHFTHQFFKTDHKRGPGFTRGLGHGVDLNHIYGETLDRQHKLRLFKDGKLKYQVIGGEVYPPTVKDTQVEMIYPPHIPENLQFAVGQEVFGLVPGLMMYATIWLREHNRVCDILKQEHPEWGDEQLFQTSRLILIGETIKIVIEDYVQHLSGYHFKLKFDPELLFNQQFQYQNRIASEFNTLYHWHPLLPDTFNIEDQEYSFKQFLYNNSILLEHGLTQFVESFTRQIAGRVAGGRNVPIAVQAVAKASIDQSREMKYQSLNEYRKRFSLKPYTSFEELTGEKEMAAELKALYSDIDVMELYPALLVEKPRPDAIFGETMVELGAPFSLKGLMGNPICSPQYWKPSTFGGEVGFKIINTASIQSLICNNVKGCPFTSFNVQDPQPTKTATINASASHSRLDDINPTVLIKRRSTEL

[3] = test system: 1483 HNSCC cells; assay: Cell viability assay; format: cell-based, human; settings: 48 h
[4] = test system: primary human mammary epithelial cells (HMEC); assay: Cell viability assay; format: cell-based; settings: 48 h, read-out: EC50 cytostatic effect
[5] = test system: 1483 HNSCC cells; assay: Reversibility of inhibition of 1483 cell growth; format: cell-based, human; settings: 1483 cells
[6] = test system: 1483 HNSCC xenografts; assay: In vivo tumor growth, 1483 HNSCC xenografts; settings: 1483 xenograft-bearing nude mice, daily intraperitoneal, 14 days
[7] = Animal weight in xenograft-bearing mice; settings: 1483 xenograft-bearing mice, 14 days treatment

COc1cc([C@@H]2c3cc4c(cc3[C@H](O)[C@H]3COC(=O)[C@H]23)OCO4)cc(OC)c1OC [Podophyllotoxin]
COX-1 inhibition, in words [1]: inactive | COX-2 inhibition, in words [2]: inactive | lowest cell number reached, % of vehicle-treated cultures ([3]; 1483 cells): ~ 35% | pEC50 ([3]; Homo sapiens, read-out: EC50 reduction in cell number): 7.21 | pEC50 [4]: 6.44 | effect of washout on reduction in cell number ([5]; 10 μM for 5 h, washout, further 72 h): significant recovery of cell number | reduction of total cell number ([5]; 10 μM, 72 h): ~ 80% | effect on tumor growth [6]: no effect on tumor size | effect on animal weight [7]: decrease in animal weight

Reference: publication PMC5289892 (ACS chemical biology, 2016)
